From PMC11862924, “Phenylpyrazoles as Inhibitors of the m^6A RNA-Binding Protein YTHDF2” (JACS Au, 2025)

Legend:
[1] = tested on: JAR; assay: CCK-8 proliferation assay, JAR; assay type: cell-based; settings: Homo sapiens; CCK-8 kit assay, triplicates, 72 h; read-out: Anti-proliferation activity against cancer cells (IC50), JAR
Experimental: (§1) The JAR, K562, HCT116, and MOLM13 cells were seeded in 96-well plates (3000 cells/well). After being cultured overnight, compounds were added together with the DMSO treatment (0.1%) as a control. After 72 h, CCK-8 solution (Vazyme, A311) was added, and the cells were incubated at 37 °C for 4 h. The absorbance was measured at 450 nm using a plate reader (TECAN Spark).

[2] = tested on: K562; assay: CCK-8 proliferation assay, K562; assay type: cell-based; settings: Homo sapiens, CCK-8 kit assay, triplicates, 72 h, read-out: Anti-proliferation activity against cancer cells (IC50), K562
Experimental: as §1

[3] = target: T1, YTHDF3 (residues 391-585) (Homo sapiens, UniProt Q7Z739); assay: FP assay with YTH domain of YTHDF3; assay type: binding; settings: 2.0 µM YTHDF3
T1 construct: YTHDF3 (residues 391–585); made in house; host or cells: Escherichia coli BL21(DE3); plasmid from the Zhou lab (Boston College)
T1 sequence (Q7Z739 391-585): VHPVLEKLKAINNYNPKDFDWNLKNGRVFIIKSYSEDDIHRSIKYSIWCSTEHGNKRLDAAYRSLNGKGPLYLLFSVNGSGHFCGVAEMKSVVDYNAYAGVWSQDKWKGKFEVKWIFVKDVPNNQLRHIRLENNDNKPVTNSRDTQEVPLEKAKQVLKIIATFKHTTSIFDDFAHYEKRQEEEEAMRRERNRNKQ
Experimental: The FP assay was performed in 384-well black plates (Corning no. 4514) with a total reaction volume of 15 μL. The final concentrations of protein (YTHDF2) and RNA were […], respectively, in a buffer containing 20 mM HEPES/KOH pH 7.5, 50 mM NaCl, 0.005% Tween 20, and 1 mM GSH (DTT). Compounds were incubated with protein, added FAM-m^6A RNA probe ([…](m6)ACUGUG) (purchased from IDT), and incubated at 4 °C for 30 min. The fluorescence polarization was measured using a plate reader (TECAN Spark) under an excitation wavelength of 485 nm and an emission wavelength of 535 nm with a bandwidth of 20 nm. […] The data were determined using GraphPad Prism 9.
Figure S9. The FP assay of YTHDF3 binding to the m6A RNA substrate. (A) The purification of YTHDF3 (residues 391-585), molecular weight: 24.1 kDa. (B) The anisotropy values using different concentrations of YTHDF3 with the m6A RNA probe (4 nM), which was used to decide the appropriate […] concentration for the FP (2.0 µM of YTHDF3, Z-factor: 0.55). (C) The […]
(1 picture or pasted object on this page, not shown here)

[4] = tested on: K562 cells; assay: Cell cycle analysis by flow cytometry; assay type: cell-based, human; settings: 24 h
Experimental: K562 cells were seeded in 6-well plates (1.0 × 10^6 cells/well) and incubated overnight. Compounds of different concentrations were added to the 6-well plates. The cell cycle analysis kit (SIGMA-Aldrich, MAK344) was used after incubation for 24 h. The cells were detached with trypsin and washed with 2 mL of ice-cold cell cycle assay buffer for each sample. The supernatant was removed after centrifugation. The cells were fixed by adding 2 mL of ice-cold 70% ethanol (added dropwise while vortexing) to the cell pellet and then placed on ice for 30 min. The supernatant was removed after centrifuging at 400 × g for 5 min. Cells were washed with a cell cycle assay buffer (2 mL). Cells were resuspended completely in 500 μL of staining solution and were protected from light exposure. After being incubated at room temperature for 30 min, each sample was analyzed by flow cytometry (Sony Biotechnology Cell Sorter SH800S) with proper machine settings. The data were analyzed by cell sorter software (Sony Biotechnology).

[5] = Apoptosis assay (Annexin V/PI flow cytometry); assay type: cell-based, human; settings: human, K562 cells, read-out: Q3: viable
Experimental: (§2) K562 cells were seeded in six-well plates (1.0 × 10^6 cells/well) and incubated overnight. Compounds of different concentrations were added to the 6-well plates. After incubation for 24 h, the cells were detached with trypsin, washed twice with PBS and cold BioLegend’s cell staining buffer, and then, 5 μL of FITC Annexin V and 10 μL of propidium iodide solution were added. The cells were gently vortexed and incubated in a dark environment for 15 min at room temperature (25 °C). After adding 400 μL of Annexin V binding buffer to each tube, each sample was analyzed by flow cytometry (Sony Biotechnology Cell Sorter SH800S) with proper machine settings, and the data were analyzed by cell sorter software (Sony Biotechnology).

[6] = tested on: K562 cells; assay: Apoptosis assay (Annexin V/PI flow cytometry); assay type: cell-based, human; settings: 24 h
Experimental: as §2

[7] = tested on: JAR cells; assay: Colony formation assay; assay type: cell-based, human; settings: n = 3 biological replicates
Experimental: JAR cells in the growth phase are prepared into cell suspensions by traditional digestion. A cell suspension (2 mL) with 200 cells per dish was seeded into a 6-well plate and incubated for 7 days. When visible colonies are present in the 6-well plate, the medium is discarded. The colonies are carefully soaked twice in PBS and dried in air. Cells were fixed with a 4% paraformaldehyde solution for 15 min. The paraformaldehyde solution was discarded, and Giemsa was used to stain the cells for 10 min. The dye solution was slowly washed away with Milli-Q water and then dried in air. The colony number and type were assessed manually under a microscope.

[8] = target: T2, YTHDF2 YTH domain (Homo sapiens, UniProt Q9Y5A9); assay: AlphaScreen assay
T2 sequence (Q9Y5A9 383-553): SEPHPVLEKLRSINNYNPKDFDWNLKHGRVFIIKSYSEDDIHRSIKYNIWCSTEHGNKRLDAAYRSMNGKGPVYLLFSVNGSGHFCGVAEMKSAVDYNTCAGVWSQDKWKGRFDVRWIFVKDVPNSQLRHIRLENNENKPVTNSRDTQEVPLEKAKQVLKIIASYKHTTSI
Experimental: Initially, the YTHDF2 YTH domain at different concentrations (0–2500 nM) was incubated with varied concentrations of RNA probes (5’-Bi-CGAm6ACUGUC–3′, IDT company) (5, 25, 50, and 100 nM) in 25 mM Hepes (pH 7.5), 100 mM NaCl, and 0.1% BSA to probe the optimal ratio between protein and RNA before the detection signal reached saturation. The AlphaScreen Histidine Detection Kit (Nickel Chelate) (PerkinElmer) 6760619 M and white 384-well Optiplates (PerkinElmer) were used. Anti-His receptor beads (PerkinElmer) (final concentration: 20 μg/mL) and streptavidin donor beads (final concentration: 20 μg/mL) were first added. The reaction mixture was then incubated at room temperature in a dark environment for 1 h to reach equilibrium. The optical signal was detected using a Tecan plate reader.
The inhibitory activities of the phenylpyrazoles (at 100 µM) against YTHDF2 binders
in the amplified luminescent proximity homogeneous assay (AlphaScreen).
phenylpyrazoles featuring a 2 -hydroxybenzoyl moiety R1 (blue) and a 4 -carboxyphenyl moiety
represent average values ± s.d.

| Compound | IC50 [1] [µM] | IC50 [2] [µM] | inhibitory activity against YTHDF3 in FP (in words) [3] | cells in the G0/G1 phase ([4]; 25 μM) [%] | cell cycle arrest (in words) [4] | viability at 24 h, 25 µM ([5]; 25 μM) [%] | viability at 24 h, 50 µM ([5]; 50 μM) [%] | viability at 24 h, 100 µM ([5]; 100 μM) [%] | total apoptosis (Q2 + Q4) ([6]; 25 μM) [%] | total apoptosis (Q2 + Q4) ([6]; 50 μM) [%] | total apoptosis (Q2 + Q4) ([6]; 100 μM) [%] | colony formation (in words) [7] | inhibition at 100 µM ([3]; read-out: inhibition of YTHDF3 at 100 μM in FP, 100 μM compound) [%] | inhibition at 100 μM in AlphaScreen ([8]; 100 μM compound) [%] | inhibitory IC50 in AlphaScreen (in words) ([8]; Figures S3 and S4) |
| --- | --- | --- | --- | --- | --- | --- | --- | --- | --- | --- | --- | --- | --- | --- | --- |
| Cc1cc(O)c(C(=O)c2cnn(-c3ccc(C(=O)O)cc3)c2)cc1Cl [CK-79] | 32.1 ± 6.3 | 28.1 ± 1.6 |  |  |  |  |  |  |  |  |  |  |  |  |  |
| O=C(O)c1ccc(-n2cc(C(=O)c3c(O)ccc4ccccc34)cn2)cc1 [CK-75] |  |  | inactive | > 70 | induced cell cycle arrest in the G0/G1 phase concentration-dependently | 71.6 | 65.1 | 54.5 | 28.3 | 34.9 | 45.4 | concentration-dependently inhibited the colony formation |  |  |  |
| O=C(O)c1ccc(-n2cc(C(=O)c3cc(Cl)cc(Cl)c3O)cn2)cc1 [CK-61] | > 50 | > 50 |  |  |  |  |  |  |  |  |  |  | 12.4 | > 80 | low double-digit micromolar |
